Test results published in ChEMBL document CHEMBL4477224, “Antidiabetic effect, antioxidant activity, and toxicity of 3',4'-Di-O-acetyl-cis-khellactone in Streptozotocin-induced diabetic rats” (Bioorg Med Chem Lett, 2016).
The source made the active and inactive calls. No cut-off for these calls is given here.

Legend:
Rattus norvegicus [1] = assay: Antidiabetic activity in STZ-induced diabetic Wistar rat blood assessed as HDL level at 15 mg/kg, po administered for 15 days (reference value: 36.31 +/- 0.51 mg/dl); assay type: functional
Rattus norvegicus [2] = assay: Antioxidant activity in STZ-induced diabetic Wistar rat liver assessed as glutathione peroxidase level measured as NADPH consumption per mg of protein at 15 mg/kg, po administered for 15 days (reference value: 10 +/- 0.6 microM/min); assay type: functional
Rattus norvegicus [3] = assay: Antioxidant activity in STZ-induced diabetic Wistar rat liver assessed as SOD level measured per mg of protein at 15 mg/kg, po administered for 15 days by NBT reduction test (reference value: 0.22 +/- 0.06 microM/min); assay type: functional
Rattus norvegicus [4] = assay: Antidiabetic activity in STZ-induced diabetic Wistar rat liver assessed as effect on central vein architecture at 15 mg/kg, po administered for 15 days by hematoxylin/eosin staining based microscopy; assay type: functional, organism-based
Rattus norvegicus [5] = assay: Antidiabetic activity in STZ-induced diabetic Wistar rat assessed as effect on hepatocytes surrounding central vein architecture at 15 mg/kg, po administered for 15 days by hematoxylin/eosin staining based microscopy; assay type: functional, organism-based
Rattus norvegicus [6] = assay: Antidiabetic activity in STZ-induced diabetic Wistar rat assessed as increase in beta cells at 15 mg/kg, po administered for 15 days by fluorescence microscopy; assay type: functional, organism-based
[7] = Mutagenicity in Salmonella typhimurium TA98 assessed as mutagenic index at 17.30 uM/plate after 48 hrs in presence of S9 fraction by Ames test relative to control; assay type: toxicity, subcellular; settings: salmonella enterica subsp. enterica serovar typhimurium, s9, 48 h, 17.3 µM
[8] = Mutagenicity in Salmonella typhimurium TA98 assessed as mutagenic index at 100 uM/plate after 48 hrs in presence of S9 fraction by Ames test relative to control; assay type: toxicity, subcellular; settings: salmonella enterica subsp. enterica serovar typhimurium, s9, 48 h
[9] = Mutagenicity in Salmonella typhimurium TA98 assessed as mutagenic index at 8.65 uM/plate after 48 hrs in absence of S9 fraction by Ames test relative to control; assay type: toxicity; settings: salmonella enterica subsp. enterica serovar typhimurium, s9, 48 h
[10] = Mutagenicity in Salmonella typhimurium TA98 assessed as mutagenic index at 17.30 uM/plate after 48 hrs in absence of S9 fraction by Ames test relative to control; assay type: toxicity; settings: salmonella enterica subsp. enterica serovar typhimurium, s9, 48 h, 17.3 µM
[11] = Mutagenicity in Salmonella typhimurium TA98 assessed as mutagenic index at 34.60 uM/plate after 48 hrs in absence of S9 fraction by Ames test relative to control; assay type: toxicity; settings: salmonella enterica subsp. enterica serovar typhimurium, s9, 48 h, 34.6 µM
[12] = Mutagenicity in Salmonella typhimurium TA98 assessed as mutagenic index at 50 uM/plate after 48 hrs in absence of S9 fraction by Ames test relative to control; assay type: toxicity; settings: salmonella enterica subsp. enterica serovar typhimurium, s9, 48 h
[13] = Mutagenicity in Salmonella typhimurium TA100 assessed as mutagenic index at 8.65 uM/plate after 48 hrs in absence of S9 fraction by Ames test relative to control; assay type: toxicity; settings: salmonella enterica subsp. enterica serovar typhimurium, s9, 48 h
[14] = Mutagenicity in Salmonella typhimurium TA100 assessed as mutagenic index at 34.60 uM/plate after 48 hrs in absence of S9 fraction by Ames test relative to control; assay type: toxicity; settings: salmonella enterica subsp. enterica serovar typhimurium, s9, 48 h, 34.6 µM
[15] = Mutagenicity in Salmonella typhimurium TA100 assessed as mutagenic index at 50 uM/plate after 48 hrs in absence of S9 fraction by Ames test relative to control; assay type: toxicity; settings: salmonella enterica subsp. enterica serovar typhimurium, s9, 48 h
[16] = Mutagenicity in Salmonella typhimurium TA100 assessed as mutagenic index at 100 uM/plate after 48 hrs in absence of S9 fraction by Ames test relative to control; assay type: toxicity; settings: salmonella enterica subsp. enterica serovar typhimurium, s9, 48 h
[17] = Mutagenicity in Salmonella typhimurium TA102 assessed as mutagenic index at 34.60 uM/plate after 48 hrs in presence of S9 fraction by Ames test relative to control; assay type: toxicity, subcellular; settings: salmonella enterica subsp. enterica serovar typhimurium, s9, 48 h, 34.6 µM
[18] = Mutagenicity in Salmonella typhimurium TA102 assessed as mutagenic index at 8.65 uM/plate after 48 hrs in absence of S9 fraction by Ames test relative to control; assay type: toxicity; settings: salmonella enterica subsp. enterica serovar typhimurium, s9, 48 h
[19] = Acute toxicity in BALB/c mouse assessed as increase in body weight at 2000 mg/kg, ig after 14 days (reference value: 13.3 +/- 0.3g); assay type: organism-based; settings: in vivo, po, 336 h
[20] = Acute toxicity in ig dosed BALB/c mouse assessed as mortality measured for 14 days; assay type: organism-based; settings: in vivo, po
Rattus norvegicus [21] = assay: Antidiabetic activity in STZ-induced diabetic Wistar rat assessed as increase in body weight at 15 mg/kg, po administered for 15 days post STZ challenge measured on day 21; assay type: functional

`CC(=O)O[C@@H]1c2c(ccc3ccc(=O)oc23)OC(C)(C)[C@@H]1OC(C)=O` (relative stereo) [QUIANHUCOUMARIN D] showed an Activity (Rattus norvegicus [1]) of 29.77 mg/dL, an Activity (Rattus norvegicus [2]) of 119 µM/min and an Activity (Rattus norvegicus [3]) of 0.73 U/min. The Activity (Rattus norvegicus [4]) was “Active”, the Activity (Rattus norvegicus [5]) was “Active” and the Activity (Rattus norvegicus [6]) was “Active”. The Ratio [7] was 1.2, the Ratio [8] was 1.4 and the Ratio [9] was 0.7. The Ratio [10] was 1, the Ratio [11] was 0.8 and the Ratio [12] was 1.1. The Ratio [13] was 1.3, the Ratio [14] was 1 and the Ratio [15] was 0.9. The Ratio [16] was 1.4, the Ratio [17] was 1.4 and the Ratio [18] was 0.7. The Activity [19] was 13 g, the LD50 at 336 h [20] was over 2000 mg/kg and the Activity (Rattus norvegicus [21]) was 45.7 g.
